Source: patent US12077503B2, “Substituted cyclic amides and their use as herbicides” (FMC CORPORATION, priority 2015, dated 2024)

Columns and labels:
Type in all cases: in vivo
[1] = test system: ryegrass, Italian (Italian ryegrass, Lolium multiflorum); test: Test A preemergence; details: Lolium multiflorum, pre-emergence, 240 h, Preemergence; for pest or weed control at 31 g/ha: 31 g ai/ha, 0 to 100 scale where 0 is no effect and 100 is complete control, read-out: Ryegrass, Italian plant response rating; for pest or weed control at 125 g/ha: 125 g ai/ha, visual injury rating after approximately 10 d, read-out: Ryegrass, Italian plant response rating (0 to 100 scale, 0 is no effect, 100 is complete control)
Procedure, shortened: (§1)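 Greenhouse, ~10 d after spray; visual injury vs untreated controls, 0 = no effect, 100 = complete control. Preemergence: directed soil spray over planted seeds. Postemergence: plants 2–10 cm, 1–2 leaf stage. Loam/sand blend. Compound in non-phytotoxic solvent with surfactant.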

[2] = test system: barnyardgrass (Echinochloa crus-galli); test: Test A preemergence; details: Echinochloa crus-galli, pre-emergence, 240 h, Preemergence; for pest or weed control at 125 g/ha: 125 g ai/ha, visual injury rating after approximately 10 d, read-out: Barnyardgrass plant response rating (0 to 100 scale, 0 is no effect, 100 is complete control); for pest or weed control at 31 g/ha: 31 g ai/ha, 0 to 100 scale (0 no effect, 100 complete control), read-out: Plant response rating, Barnyardgrass
Procedure, shortened: as §1

[3] = test system: ragweed (common ragweed, Ambrosia elatior); test: Test A preemergence; details: Ambrosia artemisiifolia, pre-emergence, 240 h, Preemergence; for pest or weed control at 31 g/ha: 31 g ai/ha, 0 to 100 scale where 0 is no effect and 100 is complete control, read-out: Ragweed plant response rating; for pest or weed control at 125 g/ha: 125 g ai/ha, visual injury rating after approximately 10 d, read-out: Ragweed plant response rating (0 to 100 scale, 0 is no effect, 100 is complete control)
Procedure, shortened: as §1

[4] = test system: pigweed (Amaranthus retroflexus); test: Test A preemergence; details: Amaranthus retroflexus, pre-emergence, 240 h, Preemergence; for pest or weed control at 31 g/ha: 31 g ai/ha, 0 to 100 scale where 0 is no effect and 100 is complete control, read-out: Pigweed plant response rating; for pest or weed control at 125 g/ha: 125 g ai/ha, visual injury rating after approximately 10 d, read-out: Pigweed plant response rating (0 to 100 scale, 0 is no effect, 100 is complete control)
[5] = test system: giant foxtail (Setaria faberii); test: Test A preemergence; details: Setaria faberi, pre-emergence, 240 h, Preemergence; for pest or weed control at 125 g/ha: 125 g ai/ha, visual injury rating after approximately 10 d, read-out: Foxtail, Giant plant response rating (0 to 100 scale, 0 is no effect, 100 is complete control); for pest or weed control at 31 g/ha: 31 g ai/ha, 0 to 100 scale (0 no effect, 100 complete control), read-out: Plant response rating, Foxtail, Giant
Procedure, shortened: as §1

Kochia (Kochia scoparia) [6] = test: Test A preemergence; details: Bassia scoparia, pre-emergence, 240 h, Preemergence; for pest or weed control at 31 g/ha: 31 g ai/ha, 0 to 100 scale where 0 is no effect and 100 is complete control, read-out: Kochia plant response rating; for pest or weed control at 125 g/ha: 125 g ai/ha, visual injury rating after approximately 10 d, read-out: Kochia plant response rating (0 to 100 scale, 0 is no effect, 100 is complete control)
Procedure, shortened: as §1

[7] = test system: blackgrass (Alopecurus myosuroides); test: Test A postemergence; details: Alopecurus myosuroides, post-emergence, 240 h, Postemergence, read-out: Plant response rating, Blackgrass; for pest or weed control at 125 g/ha: 125 g ai/ha, visual injury after approximately 10 d, 0 to 100 scale where 0 is no effect and 100 is complete control; for pest or weed control at 31 g/ha: 31 g ai/ha, visual injury after approx. 10 d, 0 to 100 scale, 0 no effect, 100 complete control
Procedure, shortened: as §1

[8] = test system: Galium (catchweed bedstraw, Galium aparine); test: Test A postemergence; details: Galium, post-emergence, 240 h, Postemergence, read-out: Plant response rating, Galium; for pest or weed control at 125 g/ha: 125 g ai/ha, visual injury after approximately 10 d, 0 to 100 scale where 0 is no effect and 100 is complete control; for pest or weed control at 31 g/ha: 31 g ai/ha, visual injury after approx. 10 d, 0 to 100 scale, 0 no effect, 100 complete control
Procedure, shortened: as §1

[9] = test system: ryegrass, Italian (Italian ryegrass, Lolium multiflorum); test: Test A postemergence; details: Lolium multiflorum, post-emergence, 240 h, Postemergence, read-out: Plant response rating, Ryegrass, Italian; for pest or weed control at 125 g/ha: 125 g ai/ha, visual injury after approximately 10 d, 0 to 100 scale where 0 is no effect and 100 is complete control; for pest or weed control at 31 g/ha: 31 g ai/ha, visual injury after approx. 10 d, 0 to 100 scale, 0 no effect, 100 complete control
Procedure, shortened: as §1

[10] = test system: barnyardgrass (Echinochloa crus-galli); test: Test A postemergence; details: Echinochloa crus-galli, post-emergence, 240 h, Postemergence, read-out: Plant response rating, Barnyardgrass; for pest or weed control at 125 g/ha: 125 g ai/ha, visual injury after approximately 10 d, 0 to 100 scale where 0 is no effect and 100 is complete control; for pest or weed control at 31 g/ha: 31 g ai/ha, visual injury after approx. 10 d, 0 to 100 scale, 0 no effect, 100 complete control
Procedure, shortened: as §1

[11] = test system: ragweed (common ragweed, Ambrosia elatior); test: Test A postemergence; details: Ambrosia artemisiifolia, post-emergence, 240 h, Postemergence, read-out: Plant response rating, Ragweed; for pest or weed control at 125 g/ha: 125 g ai/ha, visual injury after approximately 10 d, 0 to 100 scale where 0 is no effect and 100 is complete control; for pest or weed control at 31 g/ha: 31 g ai/ha, visual injury after approx. 10 d, 0 to 100 scale, 0 no effect, 100 complete control
Procedure, shortened: as §1

[12] = test system: pigweed (Amaranthus retroflexus); test: Test A postemergence; details: Amaranthus retroflexus, post-emergence, 240 h, Postemergence, read-out: Plant response rating, Pigweed; for pest or weed control at 125 g/ha: 125 g ai/ha, visual injury after approximately 10 d, 0 to 100 scale where 0 is no effect and 100 is complete control; for pest or weed control at 31 g/ha: 31 g ai/ha, visual injury after approx. 10 d, 0 to 100 scale, 0 no effect, 100 complete control
Procedure, shortened: as §1

corn (Zea mays) = test: Test A postemergence; details: Zea mays, post-emergence, 240 h, Postemergence; for Corn plant response rating (crop injury, 0 = no effect, 100 = complete kill) at 125 g/ha: 125 g ai/ha, visual injury after approximately 10 d, 0 to 100 scale where 0 is no effect and 100 is complete control; for Corn plant response rating (crop injury, 0 = no effect, 100 = complete kill) at 31 g/ha: 31 g ai/ha, visual injury after approx. 10 d, 0 to 100 scale, 100 complete control
Procedure, shortened: as §1

[13] = test system: giant foxtail (Setaria faberii); test: Test A postemergence; details: Setaria faberi, post-emergence, 240 h, Postemergence, read-out: Plant response rating, Foxtail, Giant; for pest or weed control at 125 g/ha: 125 g ai/ha, visual injury after approximately 10 d, 0 to 100 scale where 0 is no effect and 100 is complete control; for pest or weed control at 31 g/ha: 31 g ai/ha, visual injury after approx. 10 d, 0 to 100 scale, 0 no effect, 100 complete control
Procedure, shortened: as §1

Kochia (Kochia scoparia) [14] = test: Test A postemergence; details: Bassia scoparia, post-emergence, 240 h, Postemergence, read-out: Plant response rating, Kochia; for pest or weed control at 125 g/ha: 125 g ai/ha, visual injury after approximately 10 d, 0 to 100 scale where 0 is no effect and 100 is complete control; for pest or weed control at 31 g/ha: 31 g ai/ha, visual injury after approx. 10 d, 0 to 100 scale, 0 no effect, 100 complete control
Procedure, shortened: as §1

[15] = test system: wheat (Triticum aestivum); test: Test A postemergence; details: Triticum aestivum, post-emergence, 240 h, Postemergence, read-out: Plant response rating, Wheat; for plant injury at 125 g/ha: 125 g ai/ha, visual injury after approximately 10 d, 0 to 100 scale where 0 is no effect and 100 is complete control; for plant injury at 31 g/ha: 31 g ai/ha, visual injury after approx. 10 d, 0 to 100 scale, 0 no effect, 100 complete control
Procedure, shortened: as §1

[16] = test system: barnyardgrass (Echinochloa crus-galli); test: Test B flooded paddy test; details: Echinochloa crus-galli, 250 g ai/ha, Flood; 0 to 100 scale where 0 is no effect and 100 is complete control; read-out: Barnyardgrass plant response rating
Procedure, shortened: (§2)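 Plants at 2-leaf stage flooded to 3 cm above soil, with compounds applied directly to paddy water and that depth maintained. Plants kept in greenhouse 13–15 d. Visual rating versus controls on a 0 (no effect) to 100 (complete control) scale.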

[17] = test system: ducksalad (Heteranthera limosa); test: Test B flooded paddy test; details: Heteranthera limosa, 250 g ai/ha, Flood; 0 to 100 scale where 0 is no effect and 100 is complete control; read-out: Ducksalad plant response rating
Procedure, shortened: as §2

[18] = test system: sedge, umbrella (small-flower umbrella sedge, Cyperus difformis); test: Test B flooded paddy test; details: Cyperus difformis, 250 g ai/ha, Flood; 0 to 100 scale where 0 is no effect and 100 is complete control; read-out: Sedge, Umbrella plant response rating
Procedure, shortened: as §2

rice (Oryra sativa) = test: Test B flooded paddy test; details: Oryza sativa, 250 g ai/ha, Flood; 0 to 100 scale where 0 is no effect and 100 is complete control; read-out: Rice plant response rating
Procedure, shortened: as §2

CN1CC[C@H](c2ccccc2C(F)(F)F)[C@@H](C(=O)Nc2cccc(F)c2F)C1=O [Compound 1009]
0%: pest or weed control at 31 g/ha [1] | pest or weed control at 125 g/ha [1] | pest or weed control at 125 g/ha [2] | pest or weed control at 31 g/ha [2] | pest or weed control at 31 g/ha [3] | pest or weed control at 125 g/ha [3] | pest or weed control at 31 g/ha [4] | pest or weed control at 125 g/ha [4] | pest or weed control at 125 g/ha [5] | pest or weed control at 31 g/ha [5] | pest or weed control at 31 g/ha (Kochia (Kochia scoparia) [6]) | pest or weed control at 125 g/ha (Kochia (Kochia scoparia) [6]) | pest or weed control at 125 g/ha [7] | pest or weed control at 31 g/ha [7] | pest or weed control at 125 g/ha [8] | pest or weed control at 31 g/ha [8] | pest or weed control at 125 g/ha [9] | pest or weed control at 31 g/ha [9] | pest or weed control at 125 g/ha [10] | pest or weed control at 31 g/ha [10] | pest or weed control at 125 g/ha [11] | pest or weed control at 31 g/ha [11] | pest or weed control at 125 g/ha [12] | pest or weed control at 31 g/ha [12] | Corn plant response rating (crop injury, 0 = no effect, 100 = complete kill) at 125 g/ha (corn (Zea mays)) | Corn plant response rating (crop injury, 0 = no effect, 100 = complete kill) at 31 g/ha (corn (Zea mays)) | pest or weed control at 125 g/ha [13] | pest or weed control at 31 g/ha [13] | pest or weed control at 125 g/ha (Kochia (Kochia scoparia) [14]) | pest or weed control at 31 g/ha (Kochia (Kochia scoparia) [14]) | plant injury at 125 g/ha [15] | plant injury at 31 g/ha [15] | pest or weed control at 250 g/ha [16] | pest or weed control at 250 g/ha [17] | pest or weed control at 250 g/ha [18] | pest or weed control at 250 g/ha (rice (Oryra sativa))

CN1CC[C@H](c2ccccc2C(F)(F)F)[C@@H](C(=O)Nc2ccc(F)c(F)c2F)C1=O [Compound 1010]
0%: pest or weed control at 31 g/ha [1] | pest or weed control at 125 g/ha [1] | pest or weed control at 125 g/ha [2] | pest or weed control at 31 g/ha [2] | pest or weed control at 31 g/ha [3] | pest or weed control at 125 g/ha [3] | pest or weed control at 31 g/ha [4] | pest or weed control at 125 g/ha [4] | pest or weed control at 125 g/ha [5] | pest or weed control at 31 g/ha [5] | pest or weed control at 31 g/ha (Kochia (Kochia scoparia) [6]) | pest or weed control at 125 g/ha (Kochia (Kochia scoparia) [6]) | pest or weed control at 125 g/ha [7] | pest or weed control at 31 g/ha [7] | pest or weed control at 125 g/ha [8] | pest or weed control at 31 g/ha [8] | pest or weed control at 125 g/ha [9] | pest or weed control at 31 g/ha [9] | pest or weed control at 125 g/ha [10] | pest or weed control at 31 g/ha [10] | pest or weed control at 125 g/ha [11] | pest or weed control at 31 g/ha [11] | pest or weed control at 125 g/ha [12] | pest or weed control at 31 g/ha [12] | Corn plant response rating (crop injury, 0 = no effect, 100 = complete kill) at 125 g/ha (corn (Zea mays)) | Corn plant response rating (crop injury, 0 = no effect, 100 = complete kill) at 31 g/ha (corn (Zea mays)) | pest or weed control at 125 g/ha [13] | pest or weed control at 31 g/ha [13] | pest or weed control at 125 g/ha (Kochia (Kochia scoparia) [14]) | pest or weed control at 31 g/ha (Kochia (Kochia scoparia) [14]) | plant injury at 125 g/ha [15] | plant injury at 31 g/ha [15] | pest or weed control at 250 g/ha [16] | pest or weed control at 250 g/ha [17] | pest or weed control at 250 g/ha [18] | pest or weed control at 250 g/ha (rice (Oryra sativa))
